{Cy5.5} = Cy5.5 cyanine dye label
Columns and labels:
[1] = target: T1, DNase I (Homo sapiens, UniProt P24855); test: Kinetic fluorescence of probes exposed to DNase I in vitro; assay type: biochemical
T1 construct: purchased Sigma (St. Louis, Mo.)
T1 sequence (P24855 23-282): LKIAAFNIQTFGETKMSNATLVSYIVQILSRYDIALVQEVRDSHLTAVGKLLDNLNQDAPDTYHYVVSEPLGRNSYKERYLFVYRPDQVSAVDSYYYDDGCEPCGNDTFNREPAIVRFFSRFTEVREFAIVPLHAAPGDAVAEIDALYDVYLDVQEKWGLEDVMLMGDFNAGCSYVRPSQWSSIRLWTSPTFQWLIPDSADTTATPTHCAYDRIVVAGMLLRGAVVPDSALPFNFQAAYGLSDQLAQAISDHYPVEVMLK
Description: It was hypothesized that exposure of the probes to endonucleases would lead to DNA cleavage and dissociation of protruded strand from the hairpin (FIG. 2A). To assess which of the proposed probes is the best to measure endonuclease activity, the probes (0.5 μM) were exposed with recombinant human DNase I (1 μg/ml) and the kinetic fluorescence curves were recorded. Twenty min into the reaction, AB259.1, AB259.3 and AB259.5 gained 1.75-, 2.6- and 1.62-fold fluorescence, respectively, compared to the baseline (FIG. 2B). At 20-25 min, AB259.1 and AB259.3 reached the plateaus. […] Therefore, AB259.3 was chosen for further experiments.
To detect specificity of the assay to DNase I that is a Ca/Mg-dependent endonuclease, AB259.3 probe was tested with 1 μg/ml DNase I in the presence of Ca++ and Mg++ (EAA buffer), in absence of the cations (deionized water), or in excess of EDTA (200 μM). […] Finally, it was tested whether AB259.3 probe will detect inhibition of DNase I activity by DNase I inhibitors such as ZnCl2 and Zn-diisopropyl salicylate (Zn-DIPS).
(§1) All cell-free experiments were performed using the Bio-Tek Synergy 5 fluorescent plate reader. Before experiments, optimal excitation and emission wavelengths were determined. For this, excitation and emission were scanned in the ranges of 600-680 nm and 690-705 nm, respectively. The optimal excitation/emission was determined to be 665/703 nm. All kinetic and endpoint measurements were done in a total volume of 100 μl at 37° C. Unless stated otherwise, DNA substrate was used in final concentration 0.5 μM reconstituted in endonuclease activity assay (EAA) buffer (2 mM CaCl2, 5 mM MgCl2, 10 mM Tris-HCl, pH 7.4) in a 96-well plate. After measurement of starting fluorescence, DNase I or tested material (diluted 1:20 urine or 1:100 serum) were added to the reconstituted probe, rapidly mixed and fluorescence was monitored for up to 60 min with 30-sec intervals. In some instances, EDTA (final concentration 200 μM) or NaOH (50 mM) was added to terminate the reaction. For the experiments that involved assessment of fluorescence after DNA denaturing, probes were tested in Cepheid real-time PCR system using Cy5 setting (Sunnyvale, Calif.).

[2] = Baseline fluorescence of hairpin DNA probes; assay type: physicochemical; conditions: correlated with length of protruded DNA end; FIG. 1B
Excerpt: It was impossible to determine if the background fluorescence was attributed to the probe or it originated from a partial degradation of the probe. Consequently, the NIRF probes were designed as hairpins to allow testing the integrity of DNA by its denaturing followed by reannealing. The use of hairpin also allows easy measurement of the maximum fluorescence of the probe. The distance between two fluorophores varied by changing of protruding DNA strand length from +0 (AB259.1 probe) to +5 (AB259.3 probe) or to +10 (AB259.5 probe) as shown in FIG. 1A. The baseline fluorescence of probe AB259.1 was 30% higher than negative control without a probe (FIG. 1B).
as §1

[3] = Heat denaturing and reannealing of hairpin probes (probe integrity); assay type: physicochemical; conditions: ROX internal reference; above background; FIG. 1C
Description: To ensure the integrity of the DNA probes, it was tested whether a heat denaturing of the hairpins would cause an increase in fluorescence, and if a reannealing would reverse it. To compensate for thermal change of fluorophore's emission, the ROX fluorophore was added to tested probes as an internal reference.
as §1

## [Cy5.5]AACACTCCGATGAGTGTAGAATGT[Cy5.5] (DNA, 5' {Cy5.5}, 3' {Cy5.5}, backbone not given here) [AB259.3, hairpin DNA probe with Cy5.5 at both ends, protruding strand +5]
[1]; different concentrations of DNase I, FIG. 2C
  dependence of kinetic reaction on DNase I concentration: linear correlation between mean velocity (Vm) of the kinetic reaction and DNase I concentration
[1]; probe 0.5 μM, DNase I 1 μg/ml, twenty min into the reaction, FIG. 2B
  gain of fluorescence compared to baseline: 2.6 fold
[2]
  baseline fluorescence (in words): much higher levels of the baseline fluorescence
[3]
  gain of fluorescence on heat denaturing: 2.8 times
